Measured values as given in ChEMBL document CHEMBL1142479, “Studies on the synthesis of neamine-dinucleosides and neamine-PNA conjugates and their interaction with RNA” (Bioorg Med Chem Lett, 2008).
pKd: −log10 of the molar value.

Assays:
[1] = Binding affinity to 18S RNA by surface plasmon resonance
[2] = Binding affinity to 16S RNA by surface plasmon resonance
[3] = Binding affinity to trans-activation response RNA by surface plasmon resonance
[4] = Ratio of Kd for 18S RNA to Kd for 16S RNA

| pKd [1] | pKd [2] | pKd [3] | Ratio [4] | SMILES |
| --- | --- | --- | --- | --- |
| 2.92 | 3.45 | 3.00 | 3.45 | Cc1cn([C@H]2C[C@H](O)[C@@H](COP(=O)(O)O[C@H]3C[C@H](n4ccc(=O)[nH]c4=O)O[C@@H]3C(=O)NCCN[C@H]3[C@@H](O)[C@H](N)C[C@H](N)[C@H]3O[C@H]3O[C@H](CN)[C@@H](O)[C@H](O)[C@H]3N)O2)c(=O)[nH]c1=O |
| 5.00 | 5.05 | 5.30 | 1.11 | Cc1cn(CC(=O)N(CCN)CC(=O)NCCN(CC(=O)NCCN[C@H]2[C@@H](O)[C@H](N)C[C@H](N)[C@H]2O[C@H]2O[C@H](CN)[C@@H](O)[C@H](O)[C@H]2N)C(=O)Cn2cc(C)c(=O)[nH]c2=O)c(=O)[nH]c1=O |
| 3.39 | 3.74 | 3.38 | 2.24 | NC[C@H]1O[C@H](O[C@H]2[C@@H](NCCNC(=O)[C@H]3O[C@@H](n4ccc(=O)[nH]c4=O)C[C@@H]3OP(=O)(O)OC[C@H]3O[C@@H](n4ccc(=O)[nH]c4=O)C[C@@H]3O)[C@@H](O)[C@H](N)C[C@@H]2N)[C@H](N)[C@@H](O)[C@@H]1O |
| 3.58 | 3.68 | 3.94 | 1.28 | Cc1cn([C@H]2C[C@H](OP(=O)(O)OC[C@H]3O[C@@H](n4cc(C)c(=O)[nH]c4=O)C[C@@H]3O)[C@@H](C(=O)NCCCCCCN[C@H]3[C@@H](O)[C@H](N)C[C@H](N)[C@H]3O[C@H]3O[C@H](CN)[C@@H](O)[C@H](O)[C@H]3N)O2)c(=O)[nH]c1=O |
| 4.96 | 5.10 | 5.00 | 1.38 | Cc1cn(CC(=O)N(CCN)CC(=O)NCCN[C@H]2[C@@H](O)[C@H](N)C[C@H](N)[C@H]2O[C@H]2O[C@H](CN)[C@@H](O)[C@H](O)[C@H]2N)c(=O)[nH]c1=O |
| 3.26 | 3.52 | 3.20 | 1.8 | Cc1cn([C@H]2C[C@H](OP(=O)(O)OC[C@H]3O[C@@H](n4cc(C)c(=O)[nH]c4=O)C[C@@H]3O)[C@@H](C(=O)NCCN[C@H]3[C@@H](O)[C@H](N)C[C@H](N)[C@H]3O[C@H]3O[C@H](CN)[C@@H](O)[C@H](O)[C@H]3N)O2)c(=O)[nH]c1=O |
| 3.32 | 3.64 | 3.32 | 2.11 | Cc1cn([C@H]2C[C@H](OP(=O)(O)OC[C@H]3O[C@@H](n4ccc(=O)[nH]c4=O)C[C@@H]3O)[C@@H](C(=O)NCCN[C@H]3[C@@H](O)[C@H](N)C[C@H](N)[C@H]3O[C@H]3O[C@H](CN)[C@@H](O)[C@H](O)[C@H]3N)O2)c(=O)[nH]c1=O |
| 3.26 | 3.50 | 3.27 | 1.76 | Cc1cn([C@H]2C[C@H](OP(=O)(O)OC[C@H]3O[C@@H](n4cc(C)c(=O)[nH]c4=O)C[C@@H]3O)[C@@H](C(=O)NCCCN[C@H]3[C@@H](O)[C@H](N)C[C@H](N)[C@H]3O[C@H]3O[C@H](CN)[C@@H](O)[C@H](O)[C@H]3N)O2)c(=O)[nH]c1=O |

The remaining lines, values behind:

| SMILES | pKd [1] | pKd [2] | pKd [3] | Ratio [4] |
| --- | --- | --- | --- | --- |
| NC[C@H]1O[C@H](O[C@H]2[C@H](O)[C@@H](O)[C@H](N)C[C@@H]2N)[C@H](N)[C@@H](O)[C@@H]1O [NEAMINE] | 4.59 | 4.96 | 4.96 | 2.36 |
| NCCN(CC(=O)NCCN(CC(=O)NCCN[C@H]1[C@@H](O)[C@H](N)C[C@H](N)[C@H]1O[C@H]1O[C@H](CN)[C@@H](O)[C@H](O)[C@H]1N)C(=O)Cn1ccc(=O)[nH]c1=O)C(=O)Cn1ccc(=O)[nH]c1=O | 4.46 | 4.77 | 4.96 | 2.06 |
| Cc1cn(CC(=O)N(CCNC(=O)CN(CCN)C(=O)Cn2ccc(=O)[nH]c2=O)CC(=O)NCCN[C@H]2[C@@H](O)[C@H](N)C[C@H](N)[C@H]2O[C@H]2O[C@H](CN)[C@@H](O)[C@H](O)[C@H]2N)c(=O)[nH]c1=O | 4.70 | 4.96 | 5.22 | 1.81 |
| NCCN(CC(=O)NCCN[C@H]1[C@@H](O)[C@H](N)C[C@H](N)[C@H]1O[C@H]1O[C@H](CN)[C@@H](O)[C@H](O)[C@H]1N)C(=O)Cn1cnc2c(N)ncnc21 | 4.92 | 4.80 | 4.92 | 0.75 |
| Cc1cn(CC(=O)N(CCN)CC(=O)NCCN(CC(=O)NCCN[C@H]2[C@@H](O)[C@H](N)C[C@H](N)[C@H]2O[C@H]2O[C@H](CN)[C@@H](O)[C@H](O)[C@H]2N)C(=O)Cn2ccc(=O)[nH]c2=O)c(=O)[nH]c1=O | 4.60 | 4.92 | 5.10 | 2.08 |
| NCCN(CC(=O)NCCN[C@H]1[C@@H](O)[C@H](N)C[C@H](N)[C@H]1O[C@H]1O[C@H](CN)[C@@H](O)[C@H](O)[C@H]1N)C(=O)Cn1ccc(=O)[nH]c1=O | 4.77 | 4.85 | 4.62 | 1.21 |
